From article PMC3050878, “Correlation of Membrane Binding and Hydrophobicity to the Chaperone-Like Activity of PDC-109, the Major Protein of Bovine Seminal Plasma” (PLoS ONE, 2011)

What was measured:
[1] = molecular target: T1, PDC-109 (Bos taurus, UniProt P02784); test: fluorescence titration, Scatchard analysis; format: binding; settings: read-out: K a (converted)
T1 construct: native, purified from bovine seminal plasma (Sephadex G-50 gel filtration, DEAE Sephadex A-25); mature 109 residues, two FnII domains, O-glycosylated; polydisperse oligomers
T1 sequence (P02784 26-134): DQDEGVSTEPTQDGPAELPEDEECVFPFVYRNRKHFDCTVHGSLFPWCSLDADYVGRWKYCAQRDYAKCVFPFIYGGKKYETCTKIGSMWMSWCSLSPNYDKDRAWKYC

[2] = molecular target: T1, PDC-109; test: near-UV CD; format: binding; settings: sonicated unilamellar vesicles, 0.1 mM lipid, pH 7.4, room temperature
[3] = molecular target: T1, PDC-109; test: ANS fluorescence in presence of PrC; settings: 10 mM PrC, 50 µM ANS, 0.05 mg/mL protein; lowers ANS binding
[4] = molecular target: T1, PDC-109; test: isothermal titration calorimetry, sequential binding model; settings: read-out: Ka × 10^3 (M^-1) (converted)
Description: isothermal titration calorimetry, sequential binding model on PDC-109

O=S(=O)(O)c1cccc2cccc(Nc3ccccc3)c12 [ANS, 8-anilinonaphthalene sulphonic acid]
Kd [1]: 32.4 µM

CCCCCCCCCCCCCC(=O)OC[C@H](COP(=O)(O)OCC(O)CO)OC(=O)CCCCCCCCCCCCC (some centres unmarked) [DMPG]
near-UV CD [2]: the protein tertiary structure is altered upon phospholipid binding

C[N+](C)(C)CCOP(=O)([O-])O [PrC]
ANS fluorescence in presence of PrC [3]: PrC binding leads to a significant decrease in the surface hydrophobicity of the protein

O=S(=O)(O)c1cccc2c(-c3ccc(Nc4ccccc4)c4c(S(=O)(=O)O)cccc34)ccc(Nc3ccccc3)c12 [bisANS, 4,4′-Dianilino-1,1′-binaphthyl-5,5′-disulphonic acid]
Kd [4]: 389 µM

CCCCCCCCCCCCCC(=O)OC[C@H](COP(=O)([O-])OCC[N+](C)(C)C)OC(=O)CCCCCCCCCCCCC [DMPC]
near-UV CD [2]: the protein tertiary structure is altered upon phospholipid binding
